Data taken from patent US9023789B2, “Amylin analogs and pharmaceutical compositions thereof” (Novo Nordisk A/S, priority 2012, dated 2015).
Values after ≈ are worked out from the molar mass of the structure shown. Like-named read-outs stand apart in the source and are kept apart here.

Columns and labels:
[1] = biological target: T1, human amylin receptor (membranes from Amylin 3(a)/CRE-luc cells) (Homo sapiens, UniProt O60896+P30988); test: ASSAY (V) binding to the human amylin receptor (SPA, 125I-rat amylin);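 further: competition binding of cell membranes (35 ng/µL) mixed with SPA beads in 384-well plates at 40 µL total volume, read by scintillation counting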
T1 construct: expressed in transfected cells
T1 sequence (P30988 25-474): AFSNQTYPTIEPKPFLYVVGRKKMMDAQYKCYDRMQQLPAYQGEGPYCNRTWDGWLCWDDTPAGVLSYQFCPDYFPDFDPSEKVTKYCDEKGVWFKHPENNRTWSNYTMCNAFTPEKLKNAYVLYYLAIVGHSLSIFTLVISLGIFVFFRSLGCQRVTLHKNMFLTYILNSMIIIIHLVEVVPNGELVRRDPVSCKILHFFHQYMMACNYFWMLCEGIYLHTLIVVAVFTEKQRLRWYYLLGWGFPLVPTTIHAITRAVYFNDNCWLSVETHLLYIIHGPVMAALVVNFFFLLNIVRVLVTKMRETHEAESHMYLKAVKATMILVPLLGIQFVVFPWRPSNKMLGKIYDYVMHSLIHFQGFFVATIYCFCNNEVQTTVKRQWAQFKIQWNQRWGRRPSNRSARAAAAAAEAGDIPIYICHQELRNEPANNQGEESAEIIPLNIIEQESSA
T1 sequence (O60896 24-148 partner): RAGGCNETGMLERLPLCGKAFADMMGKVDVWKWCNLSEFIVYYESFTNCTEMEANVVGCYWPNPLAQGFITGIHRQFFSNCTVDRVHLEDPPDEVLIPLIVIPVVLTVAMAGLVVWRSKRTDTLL

rat calcitonin receptor = biological target: T2, rat calcitonin receptor (Rattus norvegicus, UniProt P32214); test: ASSAY (VIII) binding to the rat calcitonin receptor; conditions: Table 7, read-out: rCTR bind IC50
T2 construct: expressed in transfected cells; host or cells: BHK tk'ts 13 (transient, FuGENE 6), membranes
T2 sequence (P32214 25-479 isoform P32214-2 limits assumed): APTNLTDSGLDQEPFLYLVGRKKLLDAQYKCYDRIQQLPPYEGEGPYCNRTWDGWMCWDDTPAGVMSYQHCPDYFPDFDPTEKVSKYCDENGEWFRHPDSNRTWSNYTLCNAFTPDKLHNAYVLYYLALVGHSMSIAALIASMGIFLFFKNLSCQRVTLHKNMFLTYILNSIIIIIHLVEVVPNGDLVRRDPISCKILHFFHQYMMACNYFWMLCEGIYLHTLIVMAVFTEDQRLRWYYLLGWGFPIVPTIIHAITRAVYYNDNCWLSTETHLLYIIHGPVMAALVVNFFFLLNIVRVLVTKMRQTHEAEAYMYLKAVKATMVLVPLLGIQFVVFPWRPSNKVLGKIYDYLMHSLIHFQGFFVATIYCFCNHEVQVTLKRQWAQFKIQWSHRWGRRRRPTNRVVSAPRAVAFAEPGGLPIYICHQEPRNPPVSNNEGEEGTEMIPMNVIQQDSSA
In short: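 Cell membranes for binding came from BHK tk′ts 13 cells harvested approximately 48 hours after transient transfection with the rat receptor.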

[2] = biological target: T3, rat amylin receptor (rat calcitonin receptor + rat RAMP 3) (Rattus norvegicus, UniProt P32214+Q9JJ73); test: ASSAY (VI) binding to the rat amylin receptor
T3 construct: expressed in transfected cells; host or cells: BHK tk'ts 13 (transient, FuGENE 6), membranes
T3 sequence (P32214 25-479 isoform P32214-2 limits assumed): T2 sequence (P32214 25-479 isoform P32214-2 limits assumed)
T3 sequence (Q9JJ73 23-147 partner): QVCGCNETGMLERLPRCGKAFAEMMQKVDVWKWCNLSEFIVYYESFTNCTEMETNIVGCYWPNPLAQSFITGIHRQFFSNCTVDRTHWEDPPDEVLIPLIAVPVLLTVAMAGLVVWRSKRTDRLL
In short: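 The cell-membrane assay assessed binding at the rat amylin receptor. BHK tk′ts 13 cells were transfected transiently with rat calcitonin receptor, with FuGENE® 6 (Roche) as the transfection reagent, used per the manufacturer's recommendations. Approximately 48 hours after transfection the cells were harvested, and membranes were prepared for measuring binding.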

[3] = ASSAY (IV) determination of solubility; format: physicochemical
In short: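 Samples of polypeptide, prepared from a water stock at […] and diluted 1:1 into 100 mM buffers spanning pH 3.0 to 8.0, stood 18 hours at room temperature. Polypeptide concentration was then determined by UPLC following centrifugation.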

For `CC[C@H](C)[C@H](NC(=O)[C@H](C)NC(=O)CNC(=O)[C@H](Cc1ccccc1)NC(=O)[C@H](CC(N)=O)NC(=O)[C@@H]1CCCN1C(=O)[C@H](CO)NC(=O)[C@H](CO)NC(=O)[C@H](Cc1c[nH]cn1)NC(=O)[C@H](CCCNC(=N)N)NC(=O)[C@H](CC(C)C)NC(=O)[C@H](Cc1ccccc1)NC(=O)[C@H](CC(N)=O)NC(=O)[C@H](C)NC(=O)[C@H](CC(C)C)NC(=O)[C@H](CCCNC(=N)N)NC(=O)[C@H](CCC(N)=O)NC(=O)[C@@H](NC(=O)[C@H](C)NC(=O)[C@@H]1CSSC[C@H](NC(=O)[C@@H](N)CCCCNC(=O)COCCOCCNC(=O)COCCOCCNC(=O)CC[C@H](NC(=O)CCCCCCCCCCCCCCCCCCC(=O)O)C(=O)O)C(=O)N[C@@H](CC(N)=O)C(=O)N[C@@H]([C@@H](C)O)C(=O)N[C@@H](C)C(=O)N[C@@H]([C@@H](C)O)C(=O)N1)[C@@H](C)O)C(=O)N1CCC[C@H]1C(=O)N[C@@H](CO)C(=O)N[C@@H](CO)C(=O)N[C@H](C(=O)N[C@@H](CC(N)=O)C(=O)N[C@H](C(=O)NCC(=O)N1CCC[C@H]1C(=O)N[C@@H](CC(N)=O)C(=O)N[C@H](C(=O)N[C@@H](Cc1ccc(O)cc1)C(N)=O)[C@@H](C)O)C(C)C)[C@@H](C)O` [Example 98], the “Ratio hCT/hAmylin binding” value ([1]; Table 5, selectivity, hCTR bind IC50 / hAmylin-R bind IC50) was 74.1, the “Ratio hCT/hAmylin binding” value ([1]; Table 5a, selectivity, hCTR bind IC50 / hAmylin-R bind IC50) was 74.1 and the “Ratio hCT/hAmylin binding” value ([1]; Table 5b, selectivity, hCTR bind IC50 / hAmylin-R bind IC50) was 74.1. For the same compound, the “Ratio hCT/hAmylin binding” value ([1]; Table 5c, selectivity, hCTR bind IC50 / hAmylin-R bind IC50) was 74.1, the “Ratio hCT/hAmylin binding” value ([1]; Table 7, human binding selectivity, included for comparison) was 74.1 and the “Ratio hCT/hAmylin binding” value ([1]; Table 7a (preferred compounds), human binding selectivity, included for comparison) was 74.1. The “Ratio hCT/hAmylin binding” value ([1]; ratio of human calcitonin receptor binding IC50 to human amylin receptor binding IC50) was 74.1, the IC50 (rat calcitonin receptor) was 0.0241 µM and the IC50 ([2]; Table 7, binding to rat amylin receptor, read-out: rAmylin-R bind IC50) was 0.000137 µM. The “Ratio rCT/rAmylin binding” value ([2]; Table 7, rat binding selectivity, rCTR IC50 / rAmylin-R IC50) was 175.5, the “Ratio rCT/rAmylin binding” value ([2]; Table 7a (preferred compounds), rat binding selectivity, rCTR IC50 / rAmylin-R IC50) was 175.5 and the “Ratio rCT/rAmylin binding” value ([2]; ratio of rCTR bind IC50 to rAmylin-R bind IC50) was 175.5. The solubility at 18 h ([3]; bistrispropane buffer, pH 6.5, read-out: Solubility pH 6.5 Concentration) was no less than 200 µM, the solubility at 18 h ([3]; bistrispropane buffer, pH 7.5, read-out: Solubility pH 7.5 Concentration) was no less than 200 µM and the solubility at 18 h ([3]; bistrispropane buffer, pH 6.0, read-out: Solubility pH 6.0 Concentration) was no less than 200 µM. For the same compound, the solubility at 18 h ([3]; bistrispropane buffer, pH 7.0, read-out: Solubility pH 7.0 Concentration) was no less than 200 µM, the solubility at 18 h ([3]; bistrispropane buffer, pH 8.0, read-out: Solubility pH 8.0 Concentration) was 176 µM (≈ 824 µg/mL) and the solubility at 18 h ([3]; glycylglycine buffer, pH 3.0, read-out: Solubility pH 3.0 Concentration) was no less than 200 µM. The solubility at 18 h ([3]; glycylglycine buffer, pH 4.0, read-out: Solubility pH 4.0 Concentration) was no less than 200 µM and the solubility at 18 h ([3]; glycylglycine buffer, pH 5.0, read-out: Solubility pH 5.0 Concentration) was no less than 200 µM.
